Measurements as given in patent US20250255984A1, “MNO NANOMATERIAL BASED INHIBITORS OF INFLAMMATION AND CANCER METASTASIS” (priority 2022, published 2025).
“Also recorded” adds a separate entry of the source.

Assays:
COX-2 mRNA = COX-2 mRNA expression (RT-qPCR) in activated RAW264.7 cells; assay type: cell-based, murine; settings: 24 h
Description: (§1) TLRs recognize a variety of PAMPs and DAMPs that induce the secretion of several proinflammatory cytokines. Inhibiting TLR activation and blocking DAMP-TLR interactions is a promising strategy for alleviating PTT-induced inflammation and reducing tumor regeneration and metastasis.

4T1 tumor = assay: 4T1 metastasis tumor model, treatment with or without photothermal therapy; assay type: in vivo, Balb/c mice
HEK-Blue hTLR3 cells = assay: Agonist-induced TLR activation, HEK-Blue hTLR3 SEAP reporter cells; assay type: cell-based, human; settings: dose-dependent, presence or absence of FBS, 24 hours
Method: (§2) HEK-Blue hTLR3, hTLR8, and hTLR9 cells were obtained by co-transfecting the hTLR gene and an optimized secreted embryonic alkaline phosphatase (SEAP) reporter gene into HEK293 cells. HEK-Blue hTLR cells were cultured and maintained in DMEM with 10% FBS and 1% penicillin-streptomycin. […] After 24 hours, the supernatants were collected and mixed with Quanti-Blue™. TLR activation associated with SEAP activity was determined with a multiwell plate reader by measuring the OD at 620 nm. The cell densities (in a 96 well plate) used were 8×10^4 cells/well for HEK-Blue hTLR9 cells, 5×10^4 cells/well for HEK-Blue hTLR3 cells, and 4×10^4 cells/well for HEK-Blue hTLR8 cells.
(§3) We further studied nanoparticle-mediated inhibition of proinflammatory molecules-induced TLR activation by using HEK-Blue human TLR (hTLR) cells.
(§4) HEK-Blue hTLR3, hTLR8 and hTLR9 were obtained by co-transfecting the hTLR gene and an optimized secreted embryonic alkaline phosphatase (SEAP) reporter gene into HEK293 cells. HEK-Blue hTLR cells were cultured and maintained in DMEM with 10% FBS and 1% penicillin-streptomycin. […] TLR activation associated with SEAP activity was determined with a multiwell plate reader by measuring the OD at 620 nm.

HEK-Blue hTLR9 cells = assay: Agonist-induced TLR activation, HEK-Blue hTLR9 SEAP reporter cells; assay type: cell-based, human; settings: dose-dependent, presence or absence of FBS, 24 hours
Method: as §2, §3, §4

TNF-α = TNF-α production by activated RAW264.7 macrophages; assay type: cell-based, murine; settings: 24 h, 50 and 100 μg/ml
Description: as §1

HEK-Blue hTLR4 cells = assay: Agonist-induced TLR activation, HEK-Blue hTLR4 reporter cells; assay type: cell-based, human; settings: dose-dependent, presence or absence of FBS, 24 hours
Description: as §3

calf thymus DNA = assay: PicoGreen DNA-binding assay; settings: TE buffer, different material:DNA mass ratios, unbound PicoGreen-labeled DNA
Method: The fluorescence intensity of the unbound PicoGreen®-DNA complex at 520 nm was measured with a multiwell plate reader via excitation at 490 nm.
Inflammatory circulating cfDNA released by PTT-damaged host cells might cause a severe inflammatory response, which may be mitigated by the scavenging of cfDNA. Therefore, to interrogate the cfDNA scavenging ability of the various nanoparticles, the inventors investigated the calf thymus DNA binding affinity of the nanoparticles in Tris-EDTA (TE) buffer with and without 10% FBS by measuring unbound PicoGreen®-labeled DNA (FIGS. 5D and 5E).

[1] = without laser, intravenous three times per week

| Compound | COX-2 mRNA expression (COX-2 mRNA; CpG-activated RAW264.7 cells) | COX-2 mRNA expression (COX-2 mRNA; LPS-activated RAW264.7 cells) | survival rates of mice (4T1 tumor; after PTT) | tumor recurrence and metastasis (4T1 tumor; after laser (PTT)) | body weight of the mice (4T1 tumor; after laser (PTT), intravenous three times per week) | cytokine levels (IL-6, TNF-α and IL-1 beta) in mouse serum, ELISA (4T1 tumor; after laser (PTT), versus PBS and laser groups) | body weight of the mice (4T1 tumor; [1]) | size of the tumors / tumor suppression (4T1 tumor; [1]) | poly (I:C)-induced activation of HEK-Blue hTLR3 cells (HEK-Blue hTLR3 cells) | CpG-induced activation of HEK-Blue hTLR9 cells (HEK-Blue hTLR9 cells) | TNF-α production (TNF-α; CpG-activated RAW264.7 cells) | TNF-α production (TNF-α; LPS-activated RAW264.7 cells) | LPS-induced activation of HEK-Blue hTLR4 cells (HEK-Blue hTLR4 cells) | DNA binding affinity (calf thymus DNA) |
| --- | --- | --- | --- | --- | --- | --- | --- | --- | --- | --- | --- | --- | --- | --- |
| COc1cc(/C=C/C(=O)CC(=O)/C=C/c2ccc(O)c(OC)c2)ccc1O [curcumin] | alleviated the generation of COX-2 mRNA in CpG-induced RAW264.7 cells to some extent | no obvious inhibitory effect | greatly improved | inhibited tumor recurrence and metastasis | increased body weight | clearly lower | did not show obvious effects | did not show obvious effects; also recorded: small effect | negligible inhibitory effect | negligible inhibitory effect | slightly reduced | only slightly reduced | negligible inhibitory effect | negligible DNA binding ability |
| O=C(OC[C@H]1O[C@@H](OC(=O)c2cc(O)c(O)c(OC(=O)c3cc(O)c(O)c(O)c3)c2)[C@H](OC(=O)c2cc(O)c(O)c(OC(=O)c3cc(O)c(O)c(O)c3)c2)[C@@H](OC(=O)c2cc(O)c(O)c(OC(=O)c3cc(O)c(O)c(O)c3)c2)[C@@H]1OC(=O)c1cc(O)c(O)c(OC(=O)c2cc(O)c(O)c(O)c2)c1)c1cc(O)c(O)c(OC(=O)c2cc(O)c(O)c(O)c2)c1 [tannic acid] | – | – | – | – | – | – | – | – | – | – | – | – | – | can bind to DNA |
